Test results published in US20250011876A1, “EXTRACELLULAR RNA SIGNATURES OF MUTANT KRAS(G12C) CANCERS” (The Regents of the University of California, priority 2021, published 2025).

How the values were obtained:
[1] = test system: EVs secreted by H358 cells; assay: Nanoparticle Tracking Analysis of EV size, ExoTIC isolation; type: cell-based; settings: ExoTIC-isolated EVs, H358, AMG 510 treatment
Text: To characterize exRNA profiles, EVs were isolated using two orthogonal approaches: affinity column extraction (ExoRNeasy) and size-based filtration (Exosome Total Isolation Chip: ExoTIC). Each EV isolation method captured distinct EV populations as determined by Nanoparticle Tracking Analysis (NTA) (FIGS. 5A and 5B) 18.19. The ExoTIC platform captured a low yield of EVs that fell within a size range matching that of exosomes (FIG. 5A).
The exRNA landscape varies based on EV subpopulations isolated by different approaches. We sought to investigate two orthogonal approaches to EV isolation, which yielded distinct EV populations with variable exRNA content. This highlights the importance of upstream EV isolation procedures before the exRNA sequencing pipeline. […] The significant shift in the maxima of the EV size distribution corresponding to AMG 510 treatment was accompanied by local maxima around particles of even smaller dimensions. Further EV size-fractionated exRNA sequencing will be necessary to determine the contribution of the different EV subpopulations to our exRNA data.
RNA Isolation & Purification. Total bulk RNA was isolated from H358 cells using Quick-RNA Mini-Prep kit (Zymogen). All RNA was quantified via NanoDrop-8000 Spectrophotometer. […] Extracted exosomal RNA were quantified via Qubit RNA HS assay kit (Thermo). […]

H358 3D spheroids = assay: H358 spheroid size/area; type: cell-based; settings: 0.1 μM AMG 510
[2] = test system: KRAS and phosphorylated ERK in NCI-H358 cells; settings: cited from earlier work

Row | SMILES | EV size profile after treatment [1] | decrease of 3D spheroid size with respect to control (H358 3D spheroids) [%] | time at which abundance of KRAS and pERK begin to recover [2] [hours]
1 | C=CC(=O)N1CCN(c2nc(=O)n(-c3c(C)ccnc3C(C)C)c3nc(-c4c(O)cccc4F)c(F)cc23)[C@@H](C)C1 [AMG 510, Sotorasib] | around 150 nm | 20 | 
2 | C=CC(=O)N1CCN(c2ncnc3c(F)c(-c4c(O)cccc4F)c(Cl)cc23)CC1 [ARS1620] |  |  | 24
